{"source": "patent US20150065416A1", "about": "“NOVEL DRUG COMBINATION” (FAB PHARMA SAS, priority 2013, published 2015)", "type_in_all_cases": "cell-based, Acinetobacter baumannii", "key": {"A. baumannii SAN strain": {"system": "A. baumannii SAN strain", "assay": "Bactericidal activity (time kill kinetics, Example 5)", "conditions": "alone at 2×MIC", "experimental": "In addition, a second set of experiments involved the testing of compound(I)/additional antibacterial agent combinations of 2×/2×MIC. Samples were taken at 0, 3, 6 and 24 hours in order to determine colony forming units (CFU/mL)."}, "A. baumannii isolates [1]": {"system": "A. baumannii isolates", "assay": "Time kill study (Example 4)", "conditions": "for MIC: Acinetobacter baumannii, read-out: MIC; for Time to kill 99.9%: alone", "experimental": "A total of 12 isolates were tested (three per sub-group either susceptible, meropenem-resistant, amikacin-resistant or colistin-resistant). Two combinations were tested per isolate. Time-kill kinetics were performed by testing compound (I) and an additional antibacterial agent (amikacin, colistin and meropenem) individually at 1× and 4× the corresponding MIC of each antibacterial agent. […] Samples were taken at 0, 2, 4, 8 and 24 hours in order to determine colony forming units (CFU/mL).\nTime-kill studies were carried out as described in General Procedures using combinations of compound (I) with amikacin, meropenem and colistin, respectively."}, "A. baumannii isolates [2]": {"system": "A. baumannii isolates", "assay": "Individual antimicrobial susceptibility testing (MIC, broth microdilution, CLSI)", "conditions": "for MIC50 / MIC90: Acinetobacter baumannii", "experimental": "In the antimicrobial susceptibility testing 77 isolates of A. baumannii (from 2010) in the following sub-groups were tested: • 22 isolates generally susceptible to antimicrobial agents (“Sus”) • 20 carbapenem-resistant isolates (e.g. “MPM-R”) • 20 aminoglycoside-resistant isolates (e.g. “AMK-R”) • 15 colistin-resistant isolates. (e.g. “COL-R”)\nMinimum inhibitory concentration (MIC) endpoints were determined by broth microdilution according to CLSI guidelines (CLSI, M7-A8 & M100-S22, 2012). Panels were prepared at IHMA using cation-adjusted Mueller-Hinton broth. Colonies were taken directly from a second-pass culture plate and prepared to a suspension equivalent of the 0.5 McFarland standard using normal saline.\nTesting was carried out as described in the General Procedures to determine minimum inhibitory concentration (MIC) end points for compound (I), amikacin, colistin, gentamicin, meropenem and tobramycin, for 77 A. baumannii isolates. Under the “MIC (μg/ml)” heading, the first column (Range) indicates the MIC end points for the particular number (N) of isolates tested, the second column (50%) provides an estimate of the concentration that inhibits 50% (MIC50) of bacterial isolates tested, and the third column (90%) provides an estimate of the concentration that inhibits 90% of the bacterial isolates tested."}, "[3]": {"conditions": "Amikacin-resistant isolates, N=20"}, "[4]": {"conditions": "Colistin-resistant isolates, N=15"}, "[5]": {"conditions": "Meropenem-resistant isolates, N=20"}}, "note": "Read-outs that look alike come from different tables or passages of the source.", "data": [{"smiles": "NCC[C@H](O)C(=O)N[C@@H]1C[C@H](N)[C@@H](O[C@H]2O[C@H](CN)[C@@H](O)[C@H](O)[C@H]2O)[C@H](O)[C@H]1O[C@H]1O[C@H](CO)[C@@H](O)[C@H](N)[C@H]1O", "note": "[amikacin]", "values": [{"measurement": "effect in time-kill study when tested alone", "setting": "A. baumannii SAN strain", "value": "bactericidal"}, {"measurement": "MIC", "setting": "A. baumannii isolates [1]; isolate MPM-R-1", "value": 4, "unit": "µg/mL"}, {"measurement": "MIC", "setting": "A. baumannii isolates [1]; isolate MPM-R-2", "value": 8, "unit": "µg/mL"}, {"measurement": "MIC", "setting": "A. baumannii isolates [1]; isolate MPM-R-3", "value": 4, "unit": "µg/mL"}, {"measurement": "MIC", "setting": "A. baumannii isolates [1]; isolate Sus-1", "value": 2, "unit": "µg/mL"}, {"measurement": "MIC", "setting": "A. baumannii isolates [1]; isolate Sus-2", "value": 4, "unit": "µg/mL"}, {"measurement": "MIC", "setting": "A. baumannii isolates [1]; isolate Sus-3", "value": 4, "unit": "µg/mL"}, {"measurement": "Time to kill 99.9%", "setting": "A. baumannii isolates [1]; MPM-R-1, 1xMIC", "value": 1.4, "unit": "h"}, {"measurement": "Time to kill 99.9%", "setting": "A. baumannii isolates [1]; MPM-R-1, 4xMIC", "value": 1.2, "unit": "h"}, {"measurement": "Time to kill 99.9%", "setting": "A. baumannii isolates [1]; MPM-R-2, 1xMIC", "value": 1.3, "unit": "h"}, {"measurement": "Time to kill 99.9%", "setting": "A. baumannii isolates [1]; MPM-R-2, 4xMIC", "value": 1.2, "unit": "h"}, {"measurement": "Time to kill 99.9%", "setting": "A. baumannii isolates [1]; MPM-R-3, 1xMIC", "value": 1.4, "unit": "h"}, {"measurement": "Time to kill 99.9%", "setting": "A. baumannii isolates [1]; MPM-R-3, 4xMIC", "value": 1.2, "unit": "h"}, {"measurement": "Time to kill 99.9%", "setting": "A. baumannii isolates [1]; Sus-1, 1xMIC", "value": 1.7, "unit": "h"}, {"measurement": "Time to kill 99.9%", "setting": "A. baumannii isolates [1]; Sus-1, 4xMIC", "value": 1.2, "unit": "h"}, {"measurement": "Time to kill 99.9%", "setting": "A. baumannii isolates [1]; Sus-2, 4xMIC", "value": 1.2, "unit": "h"}, {"measurement": "Time to kill 99.9%", "setting": "A. baumannii isolates [1]; Sus-3, 1xMIC", "value": 1.3, "unit": "h"}, {"measurement": "Time to kill 99.9%", "setting": "A. baumannii isolates [1]; Sus-3, 4xMIC", "value": 1.3, "unit": "h"}, {"measurement": "effect in time-kill studies when tested alone", "setting": "A. baumannii isolates [1]; alone at 1× or 4×MIC", "value": "generally bactericidal"}, {"measurement": "MIC50", "setting": "A. baumannii isolates [2]; All isolates, N=77", "value": 8, "unit": "µg/mL"}, {"measurement": "MIC90", "setting": "A. baumannii isolates [2]; All isolates, N=77", "value": "> 128", "unit": "µg/mL"}, {"measurement": "MIC50", "setting": "A. baumannii isolates [2]; [3]", "value": "> 128", "unit": "µg/mL"}, {"measurement": "MIC90", "setting": "A. baumannii isolates [2]; [3]", "value": "> 128", "unit": "µg/mL"}, {"measurement": "MIC50", "setting": "A. baumannii isolates [2]; [4]", "value": 64, "unit": "µg/mL"}, {"measurement": "MIC90", "setting": "A. baumannii isolates [2]; [4]", "value": "> 128", "unit": "µg/mL"}, {"measurement": "MIC50", "setting": "A. baumannii isolates [2]; [5]", "value": 8, "unit": "µg/mL"}, {"measurement": "MIC90", "setting": "A. baumannii isolates [2]; [5]", "value": 128, "unit": "µg/mL"}, {"measurement": "MIC50", "setting": "A. baumannii isolates [2]; Susceptible isolates, N=22", "value": 4, "unit": "µg/mL"}, {"measurement": "MIC90", "setting": "A. baumannii isolates [2]; Susceptible isolates, N=22", "value": 8, "unit": "µg/mL"}, {"measurement": "MIC Range", "setting": "A. baumannii isolates [2]; Susceptible isolates, N=22", "value": "0.25 to 8", "unit": "µg/mL"}]}]}
